One may read the Emax as the maximal effect, on the per cent scale that the assay sets.

The values that follow come from patent US20230002367A1, “BIFUNCTIONAL COMPOUNDS” (Hoffmann-La Roche Inc., priority 2019, published 2023).

Structures are written as SMILES. Like-named read-outs stand apart in the source and are kept apart here.

The test concerns the target T1, SMARCA2 (Homo sapiens, UniProt P51531).
T1 construct: endogenous in cells
Description: SMARCA2 HiBiT degradation assay (cellular). It is filed as cell-based. The conditions noted are these: for DC50: read-out: HiBit A549 SMARCA2 IP. On the technique in general: With HiBiT, luminescence reflects the tagged protein that the partner subunit can reach.

Setting [1] is: A549, Emax = amount of residual protein remaining in the cell following compound treatment.
[2] abbreviates: SMARCA2 HiBiT cells, luminescence readout, 11-point titration from 10 μM, 6 hours or 16 hours.

T1 sequence (P51531 whole entry): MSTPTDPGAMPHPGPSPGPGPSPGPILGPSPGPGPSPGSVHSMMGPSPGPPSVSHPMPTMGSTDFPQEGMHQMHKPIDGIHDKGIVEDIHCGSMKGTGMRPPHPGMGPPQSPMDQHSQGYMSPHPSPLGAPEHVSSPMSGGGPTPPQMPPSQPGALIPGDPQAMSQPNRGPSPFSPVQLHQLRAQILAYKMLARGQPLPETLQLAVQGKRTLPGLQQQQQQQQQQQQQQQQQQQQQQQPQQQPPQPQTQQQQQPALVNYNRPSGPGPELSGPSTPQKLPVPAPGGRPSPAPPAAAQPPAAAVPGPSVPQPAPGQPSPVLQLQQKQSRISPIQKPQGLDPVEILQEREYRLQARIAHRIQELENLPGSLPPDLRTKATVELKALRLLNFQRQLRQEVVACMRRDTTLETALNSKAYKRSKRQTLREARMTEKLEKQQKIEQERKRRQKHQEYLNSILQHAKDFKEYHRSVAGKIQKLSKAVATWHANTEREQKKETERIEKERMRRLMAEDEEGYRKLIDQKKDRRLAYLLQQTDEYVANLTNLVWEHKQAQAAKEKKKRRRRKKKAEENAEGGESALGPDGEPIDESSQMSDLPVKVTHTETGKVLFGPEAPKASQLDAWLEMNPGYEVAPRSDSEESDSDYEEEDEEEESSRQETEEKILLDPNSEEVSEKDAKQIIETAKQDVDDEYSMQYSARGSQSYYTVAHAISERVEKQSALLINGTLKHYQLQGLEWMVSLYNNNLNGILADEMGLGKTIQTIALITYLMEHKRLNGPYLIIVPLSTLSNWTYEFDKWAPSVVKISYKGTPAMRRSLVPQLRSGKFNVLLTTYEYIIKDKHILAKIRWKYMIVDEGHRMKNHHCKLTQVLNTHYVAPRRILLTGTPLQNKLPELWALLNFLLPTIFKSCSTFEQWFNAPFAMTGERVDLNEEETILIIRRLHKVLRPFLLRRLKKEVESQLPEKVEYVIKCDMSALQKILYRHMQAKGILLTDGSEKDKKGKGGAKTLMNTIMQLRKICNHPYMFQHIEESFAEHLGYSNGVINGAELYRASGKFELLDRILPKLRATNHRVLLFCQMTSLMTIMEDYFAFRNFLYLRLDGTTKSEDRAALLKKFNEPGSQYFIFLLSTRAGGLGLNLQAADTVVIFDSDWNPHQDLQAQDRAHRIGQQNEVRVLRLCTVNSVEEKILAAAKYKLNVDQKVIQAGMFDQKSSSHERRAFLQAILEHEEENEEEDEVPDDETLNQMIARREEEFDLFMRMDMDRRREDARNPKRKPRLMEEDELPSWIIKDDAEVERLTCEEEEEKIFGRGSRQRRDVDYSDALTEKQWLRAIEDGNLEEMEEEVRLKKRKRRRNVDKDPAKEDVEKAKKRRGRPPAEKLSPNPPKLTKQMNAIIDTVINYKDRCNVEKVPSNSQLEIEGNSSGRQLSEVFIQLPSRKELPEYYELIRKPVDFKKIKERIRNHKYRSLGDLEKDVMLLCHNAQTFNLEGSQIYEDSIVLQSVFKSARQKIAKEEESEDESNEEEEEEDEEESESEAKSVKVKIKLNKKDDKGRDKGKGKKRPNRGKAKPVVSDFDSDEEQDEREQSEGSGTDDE

`Cc1ncsc1-c1ccc(CNC(=O)[C@@H]2C[C@@H](O)CN2C(=O)[C@H](NC(=O)CCCCCCC(=O)N2CCN(CCOc3cccc(N4C5CCC4CN(c4cc(-c6ccccc6O)nnc4N)C5)c3)CC2)C(C)(C)C)cc1` [Example 8, (2S,4R)-1-[(2R)-2-[[8-[4-[2-[3-[3-[3-amino-6-(2-hydroxyphenyl)pyridazin-4-yl]-3,8-diazabicyclo[3.2.1]octan-8-yl]phenoxy]ethyl]piperazin-1-yl]-8-oxo-octanoyl]amino]-3,3-dimethyl-butanoyl]-4-hydroxy-N-[[4-(4-methylthiazol-5-yl)phenyl]methyl]pyrrolidine-2-carboxamide] had an Emax under setting [1] of 48%. Further, the DC50 under setting [2] turned out to be 610 nM.

As for `Cc1ncsc1-c1ccc(CNC(=O)[C@@H]2C[C@@H](O)CN2C(=O)[C@@H](NC(=O)CCCCCCCCC(=O)N[C@H]2C[C@H](Oc3cc(-c4ccccc4O)nnc3N)C2)C(C)(C)C)cc1` [Example 95, N-[3-[3-amino-6-(2-hydroxyphenyl)pyridazin-4-yl]oxycyclobutyl]-N′-[(1S)-1-[(2S,4R)-4-hydroxy-2-[[4-(4-methylthiazol-5-yl)phenyl]methylcarbamoyl]pyrrolidine-1-carbonyl]-2,2-dimethyl-propyl]decanediamide], under setting [1], the Emax is 50%. Further, the DC50 under setting [2] is 2440 nM.

For the molecule `Cc1ncsc1-c1ccc([C@H](C)NC(=O)[C@@H]2C[C@@H](O)CN2C(=O)[C@@H](NC(=O)CCCCCCCCCCC(=O)N2CCN(c3ccc(N4CCCC(Oc5cc(-c6ccccc6O)nnc5N)C4)cc3)CC2)C(C)(C)C)cc1` (mixture of isomers) [Example 48, rac-(2S,4R)-4-hydroxy-1-[rac-(2S)-2-[[12-[4-[4-[3-[3-amino-6-(2-hydroxyphenyl)pyridazin-4-yl]oxy-1-piperidyl]phenyl]piperazin-1-yl]-12-oxo-dodecanoyl]amino]-3,3-dimethyl-butanoyl]-N-[rac-(1S)-1-[4-(4-methylthiazol-5-yl)phenyl]ethyl]pyrrolidine-2-carboxamide], the Emax under setting [1] came to 22%. The DC50 under setting [2] was found to be 135 nM.

Regarding `Cc1ncsc1-c1ccc(CNC(=O)[C@@H]2C[C@@H](O)CN2C(=O)[C@@H](NC(=O)CCCCCCCCCCC(=O)N2C3CCC2CN(c2cc(-c4ccccc4O)nnc2N)C3)C(C)(C)C)cc1` [Example 84, (2S,4R)-1-[(2S)-2-[[12-[3-[3-Amino-6-(2-hydroxyphenyl)pyridazin-4-yl]-3,8-diazabicyclo[3.2.1]octan-8-yl]-12-oxo-dodecanoyl]amino]-3,3-dimethyl-butanoyl]-4-hydroxy-N-[[4-(4-methylthiazol-5-yl)phenyl]methyl]pyrrolidine-2-carboxamide], under setting [1], the maximal response (Emax) turned out to be 38%. In addition, the DC50 under setting [2] worked out at 902 nM.

Molecule `Cc1ncsc1-c1ccc(CNC(=O)[C@@H]2C[C@@H](O)CN2C(=O)[C@H](C(C)C)N2Cc3ccccc3C2=O)c(OCCCCCCCCCCC(=O)N2CCN(CCOc3cccc(N4C5CCC4CN(c4cc(-c6ccccc6O)nnc4N)C5)c3)CC2)c1` [Example 30, (2S,4R)-N-[[2-[11-[4-[2-[3-[3-[3-amino-6-(2-hydroxyphenyl)pyridazin-4-yl]-3,8-diazabicyclo[3.2.1]octan-8-yl]phenoxy]ethyl]piperazin-1-yl]-11-oxo-undecoxy]-4-(4-methylthiazol-5-yl)phenyl]methyl]-4-hydroxy-1-[(2S)-3-methyl-2-(1-oxoisoindolin-2-yl)butanoyl]pyrrolidine-2-carboxamide] came in with an Emax under setting [1] of 65%. For the same molecule, the DC50 under setting [2] was 1160 nM.

For `Cc1ncsc1-c1ccc(CNC(=O)[C@@H]2C[C@@H](O)CN2C(=O)[C@@H](NC(=O)CCCCCCCCC(=O)N2CCOC3(CCN(c4cc(-c5ccccc5O)nnc4N)CC3)C2)C(C)(C)C)cc1` [Example 12, (2S,4R)-1-[(2S)-2-[[10-[9-[3-amino-6-(2-hydroxyphenyl)pyridazin-4-yl]-1-oxa-4,9-diazaspiro[5.5]undecan-4-yl]-10-oxo-decanoyl]amino]-3,3-dimethyl-butanoyl]-4-hydroxy-N-[[4-(4-methylthiazol-5-yl)phenyl]methyl]pyrrolidine-2-carboxamide], the Emax under setting [1] was 43%. For the same molecule, under setting [2], the DC50 came to 2460 nM.

`Cc1ncsc1-c1ccc(CNC(=O)[C@@H]2C[C@@H](O)CN2C(=O)[C@@H](NC(=O)CCCCCC(=O)NC(COc2cc(-c3ccccc3O)nnc2N)c2ccccc2)C(C)(C)C)cc1` (mixture of isomers) [Example 62, N-[2-[3-amino-6-(2-hydroxyphenyl)pyridazin-4-yl]oxy-1-phenyl-ethyl]-N′-[rac-(1S)-2,2-dimethyl-1-[rac-(2S,4R)-4-hydroxy-2-[[4-(4-methylthiazol-5-yl)phenyl]methylcarbamoyl]pyrrolidine-1-carbonyl]propyl]heptanediamide]: the Emax under setting [1] was found to be 54%. The DC50 under setting [2] turned out to be 2610 nM.

Under setting [1], `Cc1ncsc1-c1ccc(CNC(=O)[C@@H]2C[C@@H](O)CN2C(=O)[C@@H](NC(=O)CCCCCCCCC(=O)N2CCN(Cc3cccc(C#Cc4cc(-c5ccccc5O)nnc4N)c3)CC2)C(C)(C)C)cc1` [Example 53, (2S,4R)-1-[(2S)-2-[[10-[4-[[3-[2-[3-amino-6-(2-hydroxyphenyl)pyridazin-4-yl]ethynyl]phenyl]methyl]piperazin-1-yl]-10-oxo-decanoyl]amino]-3,3-dimethyl-butanoyl]-4-hydroxy-N-[[4-(4-methylthiazol-5-yl)phenyl]methyl]pyrrolidine-2-carboxamide] gave an Emax of 44%. The DC50 under setting [2] amounted to 240 nM.

On to `Cc1ncsc1-c1ccc(CNC(=O)[C@@H]2C[C@@H](O)CN2C(=O)[C@@H](NC(=O)CCCCCCCCC(=O)N2CCN(Cc3cccc(N4C5CCC4CN(c4cc(-c6cc(F)ccc6O)nnc4N)C5)c3)CC2)C(C)(C)C)cc1` [Example 107, (2S,4R)-1-[(2S)-2-[[10-[4-[[3-[3-[3-amino-6-(5-fluoro-2-hydroxy-phenyl)pyridazin-4-yl]-3,8-diazabicyclo[3.2.1]octan-8-yl]phenyl]methyl]piperazin-1-yl]-10-oxo-decanoyl]amino]-3,3-dimethyl-butanoyl]-4-hydroxy-N-[[4-(4-methylthiazol-5-yl)phenyl]methyl]pyrrolidine-2-carboxamide], for which the Emax (A549, different HIBIT SMARCA2 clone (footnote a), residual protein remaining) stood at 18%. For the same molecule, the DC50 (different HIBIT SMARCA2 clone (footnote a)) worked out at 82 nM.

Regarding `Cc1ncsc1-c1ccc([C@H](C)NC(=O)[C@@H]2C[C@@H](O)CN2C(=O)[C@@H](NC(=O)CCCCCCCCCCC(=O)N2CCN(CCOc3cccc(CCOc4cc(-c5ccccc5O)nnc4N)c3)CC2)C(C)(C)C)cc1` [Example 59, (2S,4R)-1-[(2S)-2-[[12-[4-[2-[3-[2-[3-amino-6-(2-hydroxyphenyl)pyridazin-4-yl]oxyethyl]phenoxy]ethyl]piperazin-1-yl]-12-oxo-dodecanoyl]amino]-3,3-dimethyl-butanoyl]-4-hydroxy-N-[(1S)-1-[4-(4-methylthiazol-5-yl)phenyl]ethyl]pyrrolidine-2-carboxamide], under setting [1], the Emax stood at 23%. In addition, the DC50 under setting [2] was determined as 305 nM.

The molecule `Cc1ncsc1-c1ccc(CNC(=O)[C@@H]2C[C@@H](O)CN2C(=O)[C@@H](NC(=O)CCCCCCCCCC(=O)N2CCN(CCOc3cccc(N4CC5CCC(C4)N5c4cc(-c5cc(F)ccc5O)nnc4N)c3)CC2)C(C)(C)C)cc1` [Example 110, (2S,4R)-1-[(2S)-2-[[11-[4-[2-[3-[8-[3-amino-6-(5-fluoro-2-hydroxy-phenyl)pyridazin-4-yl]-3,8-diazabicyclo[3.2.1]octan-3-yl]phenoxy]ethyl]piperazin-1-yl]-11-oxo-undecanoyl]amino]-3,3-dimethyl-butanoyl]-4-hydroxy-N-[[4-(4-methylthiazol-5-yl)phenyl]methyl]pyrrolidine-2-carboxamide] showed an Emax under setting [1] of 76%. Further, the DC50 under setting [2] came to 760 nM.

Consider `Cc1ncsc1-c1ccc([C@H](C)NC(=O)[C@@H]2C[C@@H](O)CN2C(=O)[C@@H](NC(=O)CCCCCCCCC(=O)N2CCN(c3ccc(N4CCCC(Oc5cc(-c6ccccc6O)nnc5N)C4)cc3)CC2)C(C)(C)C)cc1` (mixture of isomers) [Example 33, rac-(2S,4R)-4-hydroxy-1-[rac-(2S)-2-[[10-[4-[4-[3-[3-amino-6-(2-hydroxyphenyl)pyridazin-4-yl]oxy-1-piperidyl]phenyl]piperazin-1-yl]-10-oxo-decanoyl]amino]-3,3-dimethyl-butanoyl]-N-[rac-(1S)-1-[4-(4-methylthiazol-5-yl)phenyl]ethyl]pyrrolidine-2-carboxamide], for which, under setting [1], the Emax amounted to 22%. In addition, the DC50 under setting [2] was found to be 73 nM.

The molecule `Cc1ncsc1-c1ccc([C@H](C)NC(=O)[C@@H]2C[C@@H](O)CN2C(=O)[C@@H](NC(=O)CCCCCCCCCCC(=O)N2CCOC3(CCN(c4cc(-c5ccccc5O)nnc4N)CC3)C2)C(C)(C)C)cc1` [Example 44, (2S,4R)-1-[(2S)-2-[[12-[9-[3-amino-6-(2-hydroxyphenyl)pyridazin-4-yl]-1-oxa-4,9-diazaspiro[5.5]undecan-4-yl]-12-oxo-dodecanoyl]amino]-3,3-dimethyl-butanoyl]-4-hydroxy-N-[(1S)-1-[4-(4-methylthiazol-5-yl)phenyl]ethyl]pyrrolidine-2-carboxamide] had an Emax under setting [1] of 21%. Further, the DC50 under setting [2] was 205 nM.

Consider `Cc1ncsc1-c1ccc(CNC(=O)[C@@H]2C[C@@H](O)CN2C(=O)[C@@H](NC(=O)CCCCCCCC(=O)N2CCN(CCOc3cccc(N4C5CCC4CN(c4cc(-c6ccccc6O)nnc4N)C5)c3)CC2)C(C)(C)C)cc1` [Example 2, (2S,4R)-1-[(2S)-2-[[9-[4-[2-[3-[3-[3-amino-6-(2-hydroxyphenyl)pyridazin-4-yl]-3,8-diazabicyclo[3.2.1]octan-8-yl]phenoxy]ethyl]piperazin-1-yl]-9-oxo-nonanoyl]amino]-3,3-dimethyl-butanoyl]-4-hydroxy-N-[[4-(4-methylthiazol-5-yl)phenyl]methyl]pyrrolidine-2-carboxamide], for which the Emax under setting [1] worked out at 38%. Moreover, the DC50 under setting [2] came out at 478 nM.
